Results: patent US10082510B2, “SRC-2 use as metabolic biomarker for diagnosis and treatment of metastatic prostate cancer” (Baylor College of Medicine, priority 2014, dated 2018)

Legend:
Assay type in all cases: cell-based, human
[1] = tested on: SRC-2 protein in C4-2 cells; test: Western blot of SRC-2 protein level after kinase inhibitor treatment; details: for SRC-2 protein level compared to DMSO-treated cells: Torin 250 nM, 12 hours
Experimental: FIG. 4—Glutamine stimulation induces mTORC1-dependent SRC-2 transcriptional activity. (A) Western blot analysis of FASN, SCD, SRC-2 and actin in C4-2 stable cells—shNT, sh18 and sh19 grown in high glucose (11 mM)/low glutamine (0.2 mM) or low glucose (5 mM)/high glutamine (2 mM). Actin was used as a control to normalize the protein loading. Semiquantitative levels of each band were analyzed by densitometry using UVP Vision Works LS software and relative values (compared to shNT) normalized to actin are indicated numerically under each lane. (B) C4-2 cells were cultured in presence of high glucose (11 mM)/low glutamine (0.2 mM) or low glucose (5 mM)/high glutamine (2 mM) and then treated with kinase inhibitors: BEZ-235 (1 uM); Rapamycin (100 nM); Torin (250 nM); and Wortmannin (250 nM). Western blot analyses were performed to measure the stability of SRC-2 protein. Semi-quantitative levels of each band were analyzed by densitometry using UVP Vision Works LS software and relative values (compared to DMSO) normalized to actin are indicated numerically under each lane. (C) Immunoprecipitation of HA-SRC-2 followed by Western immunoblot to detect the phosphorylation status of SRC-2 using phospho-serine/threonine antibody. Input lysates were obtained from C4-2 cells expressing Adv.GFP or Adv. SRC-2, and subsequently stimulated with increasing concentration of glutamine—[…] followed by treatment with DMSO or mTORC1 inhibitor-Torin (250 nM). Actin was used to normalize the input loading. Semiquantitative levels of phospho-SRC-2 were analyzed by densitometry using UVP Vision Works LS software and relative values (compared to lane 2) normalized to actin are indicated numerically under each lane. (D) PC-3 cells expressing either Adv.GFP or Adv. SRC-2 were transfected with FASN-luc construct and stimulated with high glucose (11 mM)/low glutamine (0.2 mM) or high glutamine (2 mM)/low glucose (5 mM) followed by treatment with DMSO or Torin (250 nM). Lucifrease assay was then performed to measure the FASN promoter activity and data were normalized to total protein. […]

C4-2 and PC-3 cells [2] = test: Cell growth assay (Cellglo); details: C4-2 and PC-3 shNT cells; BPTES 1 μM, 4 days
Experimental: FIG. 6—SRC-2 is essential for prostate cancer cell survival. (A) Representative images depicting the growth of C4-2 stable cells—shNT, sh18 and sh19 in soft agar assay two weeks after plating. (B) Quantification of the total number of C4-2 stable cell colonies that survived after two weeks. (C) H&E stained sections of mouse lungs from experimental lung metastasis assay. Nude mice were injected with PC-3 cells stably expressing shNT, sh18 and sh19 via tail vein (n=7), and growth and survival of the cells in mouse lungs were analyzed after 5 weeks. (D) Quantification of Ki67 (antibody epitope reacts with human Ki67 protein) stained cells in the mouse lung sections from shNT, sh18 and sh19-injected animals. Refer Supplementary FIG. 14C. (E) Western blot analysis showing the expression levels of SRC-2, FASN, SCD and actin in C4-2 stable cells—shNT and sh19, and re-expression of SRC-2 in sh19 cells infected with Adv. SRC-2. Actin was used to normalize the protein loading. […]
Cells were seeded in 96-well plates in complete medium, and after the cells attached to the bottom surface they were incubated in nutrient-stressed medium. The cell growth was measured using Cellglo kit (Promega) according to manufacturer's instructions. […]

C4-2 and PC-3 cells [3] = test: Oxygen consumption rate (Seahorse XF24); details: C4-2 and PC-3 stable cells; oligomycin 25-40 min time frame, FCCP 45-65 min time frame
Experimental: (A) Real-time measurement of basal and maximal oxygen consumption rate (OCR) in C4-2 stable cells—shNT, sh18 and sh19. (B, C) Basal and maximal OCR in C4-2 stable cells—shNT, sh18 and sh19 were measured in DMSO control (B) or FCCP-treated (C) cells cultured in presence of high glucose (11 mM)/low glutamine (0.2 mM) or low glucose (5 mM)/high glutamine (2 mM). […] Data are graphed as the mean±s.e.m. *P<0.05, **P<0.001 by Student's t test.
(A) Real-time measurement of basal and maximal oxygen consumption rate (OCR) in PC-3 stable cells—shNT, sh18, and sh19. (B, C) Basal and maximal OCR in PC-3 stable cells—shNT, sh18, and sh19 were measured in DMSO control or FCCP-treated cells cultured in presence of high glucose (11 mM)/low glutamine (0.2 mM) or low glucose (5 mM)/high glutamine (2 mM). […] Data are graphed as the mean±s.e.m. *P<0.05, **P<0.001 by Student's t test.
The oxygen consumption rate (OCR) was measured using a Seahorse Bioscience XF24 Extracellular Flux Analyzer according to manufacturer's protocol. Briefly, cells were seeded in triplicates at equal densities (25,000 cells per well) into XF24 tissue culture plates. […] Oxygen consumption was measured under basal conditions (DMSO), oligomycin and mitochondrial uncoupler trifluoromethoxy carbonyl cyanide phenyl 59ydrazine (FCCP) (2 mM) using the mito-stress kit (Seahorse Bioscience). […]

SRC-2 mRNA in C4-2 cells = test: Quantitative real time PCR of SRC-2 messenger after kinase inhibitor treatment; details: Torin 250 nM
Experimental: FIG. 13—Glutamine stimulation activates SRC-2 transcriptional functions in an mTORC1 dependent manner. (A) Quantitative real time PCR analysis of FASN, SCD and SRC-2 in C4-2 cells were treated with siGFP (control) or siSRC-2 and cultured in nutrient stressed conditions—high glucose (11 mM)/low glutamine (0.2 mM) or low glucose (5 mM)/high glutamine (2 mM). (B) Quantitative real time PCR analysis of SRC-2 in C4-2 cells expressing siGFP (control) or siSRC-2 and then treated with BEZ-235 (1 uM); Rapamycin (100 nM); Torin (250 nM); and Wortmannin (250 nM). (C) Western blot analysis showing the expression of phospho-S6K (p-S6K), phospho-4EBP1 (p-4EBP1) and actin in C4-2 cells stimulated with increasing concentration of glutamine followed by treatment with DMSO or mTORC1 inhibitor-Torin. Actin was used to normalize the protein loading.
Total mRNA was isolated from prostate cancer cells, tissues and tumors using the RNeasy Kit (QIAGEN). Reverse transcription was carried out using Superscript VILO cDNA synthesis kit (Invitrogen, CA) according to the manufacturer's instructions. For gene expression analysis, qPCR was performed using the Taqman system (Roche) with sequence-specific primers and the Universal Probe Library (Roche). […] Data was analyzed using the comparative Ct method (ΔΔCt). […] Data obtained was analyzed using RT^2 Profiler™ PCR Array Data Analysis software (SA Bioscineces, CA). […]

[4] = tested on: SRC-2 serine/threonine phosphorylation in C4-2 cells; test: Immunoprecipitation of HA-SRC-2 and phospho-serine/threonine immunoblot; details: C4-2 cells expressing Adv. SRC-2 (HA-SRC-2), glutamine stimulated; Torin 250 nM, 4 hours pre-treatment
Experimental: (§1) FIG. 4—Glutamine stimulation induces mTORC1-dependent SRC-2 transcriptional activity. (A) Western blot analysis of FASN, SCD, SRC-2 and actin in C4-2 stable cells—shNT, sh18 and sh19 grown in high glucose (11 mM)/low glutamine (0.2 mM) or low glucose (5 mM)/high glutamine (2 mM). Actin was used as a control to normalize the protein loading. Semiquantitative levels of each band were analyzed by densitometry using UVP Vision Works LS software and relative values (compared to shNT) normalized to actin are indicated numerically under each lane. (B) C4-2 cells were cultured in presence of high glucose (11 mM)/low glutamine (0.2 mM) or low glucose (5 mM)/high glutamine (2 mM) and then treated with kinase inhibitors: BEZ-235 (1 uM); Rapamycin (100 nM); Torin (250 nM); and Wortmannin (250 nM). Western blot analyses were performed to measure the stability of SRC-2 protein. Semi-quantitative levels of each band were analyzed by densitometry using UVP Vision Works LS software and relative values (compared to DMSO) normalized to actin are indicated numerically under each lane. […] Semiquantitative levels of phospho-SRC-2 were analyzed by densitometry using UVP Vision Works LS software and relative values (compared to lane 2) normalized to actin are indicated numerically under each lane. […]

[5] = tested on: SRC-2 protein stability in C4-2 cells; test: Cycloheximide protein stability assay; details: high glutamine (2.0 mM), cycloheximide 0.5 mM, Torin 250 nM
Experimental: FIG. 14—Glutamine-dependent mTORC1 phosphorylation controls SRC-2 protein stability. (A) C4-2 cells were cultured in presence of low glutamine (0.2 mM) and high glutamine (2.0 mM) followed by treatment with cycloheximide (0.5 mM) for indicated time points. Western blot showing the total-level of SRC-2 and actin was used as a loading control. (B) C4-2 cells were cultured in presence of high glutamine (2.0 mM) followed by either treatment with DMSO and Torin. Cycloheximide (0.5 mM) was then added to the cells for indicated time points. Western blot showing the total-level of SRC-2 and actin was used as a loading control.
SRC-2 protein stability was studied by cycloheximide treatment experiments in C4-2 cells for different time points as described previously (Li C, Jo A, et al, 2011). C4-2 cells were cultured in low glutamine (0.2 mM) or high glutamine (2.0 mM) followed by treatment with cycloheximide (0.5 mM). For Torin treatment, C4-2 cells cultured in high glutamine were either treated with DMSO (vehicle-control) or Torin (250 nM) prior to cyclohexamide treatments. Cells were lysed followed by Western immunoblotting.

[6] = tested on: SRC-2 driven FASN-promoter activity in PC-3 cells; test: FASN-luc luciferase reporter assay; details: PC-3 cells expressing Adv. SRC-2, high glutamine (2 mM)/low glucose (5 mM); Torin 250 nM
Experimental: as §1, with “(B) C4-2 cells were cultured in presence of high glucose (11 mM)/low glutamine (0.2 mM) or low glucose (5 mM)/high glutamine (2 mM) and then treated with kinase inhibitors: BEZ-235 (1 uM); Rapamycin (100 nM); Torin (250 nM); and Wortmannin (250 nM). Western blot analyses were performed to measure the stability of SRC-2 protein.” left out
Luciferase assays were performed using Luciferase Reporter Assay (Promega) and a Berthold 96 well plate reader. […]
Luciferase promoter constructs were obtained from following sources: FASN-Addgene, SCD-Switchgear genomics and ZIP1—Peter Makhov (Fox Chase Cancer Center). […] Cells were harvested two days after transfection and luciferase assay performed using a Luciferase Reporter Assay (Promega) and a Berthold 96 well plate reader. […]

[7] = tested on: recruitment of SRC-2 to the FASN and SCD promoters in C4-2 cells; test: ChIP of SRC-2 on FASN and SCD promoters; details: glutamine stimulation (2 mM), Torin 250 nM

Cn1c(=O)n(-c2ccc(C(C)(C)C#N)cc2)c2c3cc(-c4cnc5ccccc5c4)ccc3ncc21 [BEZ-235]
SRC-2 protein stability ([1]; either culture condition (high glucose/low glutamine or low glucose/high glutamine), BEZ-235 1 uM): failed to show any effect

O=C(Cc1ccccc1)Nc1nnc(CCSCCc2nnc(NC(=O)Cc3ccccc3)s2)s1 [BPTES]
Prostate cancer cell growth compared to DMSO (C4-2 and PC-3 cells [2]): robust decrease

N#CC(C#N)=NNc1ccc(OC(F)(F)F)cc1 [FCCP, Carbonyl cyanide 4-(trifluoromethoxy)phenylhydrazone]
Oxygen consumption rate (OCR) (C4-2 and PC-3 cells [3]): dramatically enhanced

CCC(=O)N1CCN(c2ccc(-n3c(=O)ccc4cnc5ccc(-c6cnc7ccccc7c6)cc5c43)cc2C(F)(F)F)CC1 [Torin]
SRC-2 protein level compared to DMSO-treated cells ([1]; glutamine-stimulated (low glucose 5 mM/high glutamine 2 mM), Rapamycin 100 nM): down-regulated
SRC-2 protein level compared to DMSO-treated cells ([1]; high glucose (11 mM)/low glutamine (0.2 mM), Wortmannin 250 nM): not observed
SRC-2 messenger expression (SRC-2 mRNA in C4-2 cells): without any appreciable change
Glutamine-induced SRC-2-serine/threonine phosphorylation [4]: reversed
Glutamine-increased SRC-2 protein stability (cycloheximide time course) [5]: completely suppressed
Glutamine dependent SRC-2 driven FASN-promoter activity [6]: significantly blocked
Glutamine dependent recruitment of SRC-2 to the FASN and SCD promoters [7]: significantly blocked

CC[C@H]1/C=C/C=C/C[C@@H](C)[C@H](O)[C@@](C)(O)C(=O)[C@@H](C)[C@H](O)[C@@H](C)C(=O)[C@@H](C)[C@H](O)[C@@H](C)/C=C/C(=O)O[C@@H]2[C@H](C)[C@H](CC1)O[C@]1(CC[C@H](C)[C@H](C[C@@H](C)O)O1)[C@H]2C [oligomycin]
Oxygen consumption rate (OCR) (C4-2 and PC-3 cells [3]): decreased the oxygen consumption
